This note sets out measurements from patent US20210253598A1, “ARYL ANNULATED MACROCYCLIC INDOLE DERIVATIVES” (priority 2017, published 2021).

The structures appear in SMILES notation. Where “and” joins values, the source holds several entries; their conditions need not be identical. Equal entries are not always repeated. Structures can show the parent of a compound that is named as a salt. Where two headings read alike, the source gives them in different places.

Data set [1] concerns SUDHL10. Kind of data set: Induction of cytotoxicity in SUDHL10 cells, CellTiter-Glo (Assay 6). It is filed as cell-based. The note with it: SUDHL10, 5 hours incubation, median, read-out: Cytotox SUDHL10 [M] (median). The method, then:
(§1) Induction of Cytotoxicity Upon Treatment of Cells with Selected Compounds
(§2) In principle, compounds that induce apoptosis will concomitantly induce cell cytotoxicity. Therefore, cytotoxicity assays were run in parallel in SUDHL5 and SUDHL10 cells.
(§3) As a control, medium without cells was also added to the plate. Cells were incubated in a humidified incubator at 37° C. overnight. […] Rim wells were excluded. The cells were incubated for 5 hours in a humidified incubator at 37° C. After this incubation, 30 μl of CellTiter-Glo® Luminescent Cell Viability reagent (Promega, G7573) was added to each well using the Multidrop Combi Reagent Dispenser, followed by 15 minutes incubation on a shaker at room temperature. Finally, luminescence was read at 0.1 ms, with a gain of 3000 using the PHERAstar FS microplate reader (BMG Labtech).
On the technique in general: In ATP-based viability assays light output follows the ATP content of the culture.

For data set [2], the system named is SUDHL5. Kind of data set: Induction of caspase-3/7 activity in SUDHL5 cells (Assay 4). It is filed as cell-based. The note with it: SUDHL5, 3 hours treatment, Caspase-Glo 3/7, median, read-out: Caspase SUDHL5 [M] (median). As for the experimental part:
(§4) Induction of Caspase-3/7 Activity Upon Treatment of Cells with Selected Compounds
(§5) The BH3-domain of MCL-1 sequesters pro-apoptotic proteins, thereby inhibiting apoptosis. In contrast, MCL-1 inhibitors are expected to antagonize this effect leading to an increase in apoptosis, which can be determined by measuring the activity of caspase-3/7.
(§6) The activity of caspase-3/7 was determined in DLBCL (Diffuse large B-cell lymphoma) cell lines (SUDHL5 and SUDHL10) upon treatment with different compounds, using the Caspase-Glo® 3/7 reagent from Promega (G8092).
(§7) As a control, medium without cells was also added to the plate. Cells were incubated in a humidified incubator at 37° C. overnight.
(§8) Rim wells were excluded. The cells were incubated for 3 hours in a humidified incubator at 37° C. After this incubation, 30 μl of Caspase-Glo® 3/7 reagent (Promega G8092) was added to each well using the Multidrop Combi Reagent Dispenser, followed by 1 hour incubation at 37° C. Finally, luminescence was read at 0.1 ms, with a gain of 3000 using the PHERAstar FS microplate reader (BMG Labtech).
(§9) For the evaluation of the results, the background measured with “medium-only” was subtracted from all other values. Then, the values were normalized to DMSO-only treated cells (every value was divided by the mean of the DMSO control).

Data set [3] concerns SUDHL5. Kind of data set: Anti-proliferative effect in SUDHL5 cells, CellTiter-Glo (Assay 7). It is filed as cell-based. The note with it: SUDHL5, 72 hours incubation, CellTiter-Glo, median, read-out: Antiproli SUDHL5 [M] (median). As for the experimental part:
(§10) Assessment of the Anti-Proliferative Effect of Compounds in Different Cell Lines
(§11) The impact of compounds on the proliferation of different cell lines was assessed using the CellTiter-Glo® Luminescent Cell Viability reagent from Promega (G7573).
(§12) In parallel, cells were plated in a reference (day 0) plate for time zero determination. Cells were incubated in a humidified incubator at 37° C. overnight.
(§13) Rim wells were excluded. The cells were incubated for 72 hours in a humidified incubator at 37° C. The day 0 plate was measured by adding 30 μL/well of CTG solution (CellTiter-Glo® Luminescent Cell Viability reagent, Promega G7573) to time zero wells in the reference plate followed by a 10 minutes incubation and luminescence reading at 0.1 ms. using the PHERAstar FS microplate reader (BMG Labtech).
(§14) After 72 hours incubation, the treated plates were measured in the same way as the day 0 plate mentioned above. The Bella DRC Master Sheet was used to calculate IC50s, with CI=day 0 values and C0=DMSO control values.

Data set [4] deals with SUDHL10. Kind of data set: Induction of caspase-3/7 activity in SUDHL10 cells (Assay 4). It is filed as cell-based. The note with it: SUDHL10, 3 hours treatment, Caspase-Glo 3/7, median, read-out: Caspase SUDHL10 [M] (median). The method, then:
as §4, §5, §6, §7, §8, §9

For data set [5], the system named is SUDHL5. Kind of data set: Induction of cytotoxicity in SUDHL5 cells, CellTiter-Glo (Assay 6). It counts as cell-based. Conditions: SUDHL5, 5 hours incubation, median, read-out: Cytotox SUDHL5 [M] (median). The method, then:
as §1, §2, §3

The next data set deals with MCL-1 (Homo sapiens, UniProt Q07820, K194A/K197A/R201A). Kind of data set: Protein-protein interaction assay MCL-1/Noxa BH3 peptide, TR-FRET (MCL-1 assay, Assay 1). It counts as binding. Conditions: MCL-1 Assay [M] (median), MBP-MCL-1 / Noxa BH3 peptide. The method, then: The dose-dependent inhibition by the compounds described in this invention of the interaction between MCL-1 and the BH3 domain of Noxa (both human) was determined using a steady state binding competition assay with time-resolved fluorescence energy transfer (TR-FRET) readout. For that purpose MCL-1 (amino acids 173-321, N-terminal fused to Maltose Binding Protein (MBP), SEQ ID 1) and a synthetic Noxa BH3-derived peptide of sequence Biotin-PEG2-PEG2-PAELEVE-Nva-[…]-amide (SEQ ID 2) served as protein receptor and tracer ligand respectively. The MBP-MCL-1 was purchased from Beryllium (Bedford, Mass., USA). The expression and purification of this protein construct has been described elsewhere (DOI:10.1371/journal.pone.0125010). The Noxa BH3-derived peptide can be obtained from e.g. Biosyntan (Berlin, Germany).
Sequence of MCL-1 (Q07820 173-321 K194A/K197A/R201A, looked up): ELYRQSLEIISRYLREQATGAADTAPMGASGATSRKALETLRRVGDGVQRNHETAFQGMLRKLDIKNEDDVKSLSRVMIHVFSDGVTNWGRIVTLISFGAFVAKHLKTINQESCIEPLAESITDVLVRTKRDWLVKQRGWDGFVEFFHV
For that, 100-fold concentrated DMSO solutions were prepared by serial dilutions (1:3.4) of a 2 mM stock solution in a clear, 384-well microtiter plate (Greiner Bio-One, Frickenhausen, Germany). From there, 50 nl were transferred in a dark test plate (Greiner Bio-One, Frickenhausen, Germany). The assay was initiated by addition of 2 μl of a 2,5-fold concentrated MBP-MCL-1 solution (usually for a 1 nM end concentration in 5 μl reaction volume) in aqueous assay buffer [50 mM Tris/HCl pH 7, 100 mM sodium chloride (NaCl), 50 mM potassium fluoride (KF), 0.005% Tween-20, 2 mM DTT, 0.1% bovine gamma globulin (BGG)] to the compounds in the assay plate. This was followed by a 10-minute incubation step at 22° C. for pre-equilibration of the putative complex between MBP-MCL-1 and the compounds.
The mixture was incubated in the dark for one hour at 22° C. and then overnight at 4° C. The formation of MCL-1/Noxa complexes was determined by measuring the resonance energy transfer of the anti-MBP-Eu-cryptate antibody to the streptavidin-XL665 present in the reaction.
The resulting data (ratio) were normalized, taking 0% inhibition as the mean value of control measurements (usually 32 data points) where all reagents were included. In this case 50 nl DMSO were used instead of compounds. […] IC50 values were determined by regression analysis based on a 4 parameter equation (minimum, maximum, IC50, Hill; Y=Max+(Min−Max)/(1+(X/IC50)^Hill) using the Screener Software (Genedata).

In the next data set the test system is A2780. Kind of data set: Anti-proliferative effect in A2780 cells, CellTiter-Glo (Assay 7). It counts as cell-based. Conditions: A2780, 72 hours incubation, CellTiter-Glo; several values per example; read-out: Antiproli A2780. As for the experimental part:
as §10, §11, §12, §13, §14

Regarding `Cc1c2c(nn1C)COCc1ncccc1Cn1c(C(=O)O)c(CCCOc3cccc4ccccc34)c3cccc-2c31` (racemic) [Example 7, (rac)-4,5-Dimethyl-17-[3-(naphthalen-1-yloxy)propyl]-5,7,9,14-tetrahydropyrazolo[4′,3′:9,10]-pyrido[2′,3′:3,4][1,6]oxazacycloundecino[8,7,6-hi]indole-16-carboxylic Acid], the IC50 came out at 1.5e-05 M in the data set on SUDHL10 [1] (Homo sapiens, SU-DHL10, 5 h); 4.6e-06 M in the data set with SUDHL5 [3] (Homo sapiens, SU-DHL-5, 72 h); 3.6e-06 M with SUDHL5 [5] (Homo sapiens, SU-DHL-5, 5 h). Further, the EC50 with SUDHL5 [2] (Homo sapiens, SU-DHL-5, 3 h) is 3e-06 M; with SUDHL10 [4] (Homo sapiens, SU-DHL10, 3 h), 1.6e-05 M.

Regarding `Cc1c2c(nn1C)COCc1cccnc1Cn1c(C(=O)O)c(CCCOc3cccc4ccccc34)c3cccc-2c31` (single isomer, unassigned; enantiomer 1) [Example 5, 4,5-Dimethyl-17-[3-(naphthalen-1-yloxy)propyl]-5,7,9,14-tetrahydropyrazolo[4′,3′:9,10]-pyrido[3′,2′:3,4][1,6]oxazacycloundecino[8,7,6-hi]indole-16-carboxylic Acid (Enantiomer 1)], the IC50 in the data set on SUDHL10 [1] worked out at 1.3e-05 M; in the data set with SUDHL5 [3], 5.2e-06 M; on MCL-1, 2.9e-09 M; in the data set with SUDHL5 [5], 4.6e-06 M. Further, the EC50 was found to be 5.4e-06 M in the data set with SUDHL5 [2] and 1.4e-05 M with SUDHL10 [4].

Take `Cc1c2c(nn1C)COCc1ncccc1Cn1c(C(=O)O)c(CCCOc3cccc4ccccc34)c3cccc-2c31` (single isomer, unassigned; enantiomer 2) [Example 9, 4,5-Dimethyl-17-[3-(naphthalen-1-yloxy)propyl]-5,7,9,14-tetrahydropyrazolo[4′,3′:9,10]-pyrido[2′,3′:3,4][1,6]oxazacycloundecino[8,7,6-hi]indole-16-carboxylic acid-N-ethylethanamine Salt (Enantiomer 2)]: the IC50 in the data set on SUDHL10 [1] is greater than 3.3e-05 M; with SUDHL5 [3] it was 2e-05 M; on MCL-1, 3.2e-08 M; in the data set on SUDHL5 [5], greater than 3.3e-05 M. The EC50 in the data set with SUDHL5 [2] and in the data set on SUDHL10 [4] was greater than 3.3e-05 M each time.

As to `Cc1c2c(nn1C)COCc1ccccc1Cn1c(C(=O)O)c(CCCOc3cccc4ccccc34)c3cccc-2c31` (racemic) [Example 1, (rac)-4,5-Dimethyl-17-[3-(naphthalen-1-yloxy)propyl]-5,7,9,14-tetrahydroindolo[7,1-fg]pyrazolo[3,4-d][2,8]benzoxazacycloundecine-16-carboxylic Acid], the IC50 in the data set on SUDHL10 [1] (Homo sapiens, SU-DHL10, 5 h) was greater than 1.6e-05 M; in the data set with SUDHL5 [3] (Homo sapiens, SU-DHL-5, 72 h) it was 9e-06 M; against MCL-1, 1.4e-08 M; in the data set on SUDHL5 [5] (Homo sapiens, SU-DHL-5, 5 h) it was 1.1e-05 M. Also, the EC50 is 1e-05 M in the data set on SUDHL5 [2] (Homo sapiens, SU-DHL-5, 3 h) and greater than 3.3e-05 M with SUDHL10 [4] (Homo sapiens, SU-DHL10, 3 h).

As for `Cc1c2c(nn1C)CN(C(=O)NC1CCOCC1)Cc1ccccc1Cn1c(C(=O)O)c(CCCOc3cccc4ccccc34)c3cccc-2c31` (single isomer, unassigned; enantiomer 1) [Example 25, (+)-4,5-Dimethyl-17-[3-(naphthalen-1-yloxy)propyl]-8-(tetrahydro-2H-pyran-4-ylcarbamoyl)-7,8,9,14-tetrahydro-5H-indolo[1,7-bc]pyrazolo[4,3-e][2,8]benzodiazacycloundecine-16-carboxylic Acid (Enantiomer 1)], the IC50 in the data set with SUDHL10 [1] (Homo sapiens, SU-DHL10, 5 h) was greater than 3.3e-05 M; against MCL-1, 2.6e-07 M; in the data set with SUDHL5 [5], greater than 3.3e-05 M. The EC50 was greater than 3.3e-05 M in the data set with SUDHL5 [2] (Homo sapiens, SU-DHL-5, 3 h) and greater than 3.3e-05 M with SUDHL10 [4] (Homo sapiens, SU-DHL10, 3 h).

Regarding `Cc1c2c(nn1C)COCc1cccnc1Cn1c(C(=O)O)c(CCCOc3cccc4ccccc34)c3cccc-2c31` (racemic) [Example 4, (rac)-4,5-Dimethyl-17-[3-(naphthalen-1-yloxy)propyl]-5,7,9,14-tetrahydropyrazolo-[4′,3′:9,10]pyrido[3′,2′:3,4][1,6]oxazacycloundecino[8,7,6-hi]indole-16-carboxylic Acid], the IC50 with SUDHL10 [1] (Homo sapiens, SU-DHL10, 5 h) is greater than 2.3e-05 M; in the data set with SUDHL5 [3] (Homo sapiens, SU-DHL-5, 72 h), 1.4e-05 M; against MCL-1, 5.3e-09 M; in the data set on SUDHL5 [5] (Homo sapiens, SU-DHL-5, 5 h), 1.2e-05 M. The EC50 in the data set with SUDHL5 [2] (Homo sapiens, SU-DHL-5, 3 h) is 1.5e-05 M; in the data set on SUDHL10 [4] (Homo sapiens, SU-DHL10, 3 h), greater than 3.2e-05 M.

As to `Cc1c2c(nn1C)COCc1cccnc1Cn1c(C(=O)O)c(CCCOc3cccc4ccccc34)c3cccc-2c31` [Example 04], in the data set with A2780, the IC50 is 31.1 µM and > 33 µM.

Take `Cc1c2c(nn1C)COCc1cccnc1Cn1c(C(=O)O)c(CCCOc3cccc4ccccc34)c3cccc-2c31` (single isomer, unassigned; enantiomer 2) [Example 6, 4,5-Dimethyl-17-[3-(naphthalen-1-yloxy)propyl]-5,7,9,14-tetrahydropyrazolo[4′,3′:9,10]-pyrido[3′,2′:3,4][1,6]oxazacycloundecino[8,7,6-hi]indole-16-carboxylic Acid (Enantiomer 2)]: the IC50 is greater than 3.3e-05 M in the data set with SUDHL10 [1], 1.2e-05 M with SUDHL5 [3], 1.1e-08 M against MCL-1 and greater than 1.9e-05 M with SUDHL5 [5]. Moreover, the EC50 with SUDHL5 [2] was greater than 2.2e-05 M; with SUDHL10 [4] it was greater than 3.3e-05 M.
